Data reported in US7842683B2, “Neurotherapeutic compositions and method” (Revaax Pharmaceuticals, LLC, priority 1999, dated 2010).

Columns and labels:
male hamsters = test: Novelty test, stress-induced release of cortisol; format: in vivo; details: 10 μg/kg IP
Procedure: The simple procedure of placing an adult male hamster into a novel environment for 5 min causes a significant, predictable increase in blood levels of cortisol (Weinberg and Wong 1986). This novelty test was used to assess the effects of CLAV on stress-induced release of cortisol. Two groups of male hamsters were treated IP with either CLAV (10 μg/kg, n=6), or saline vehicle (n=4). A third group (n=4) received no treatment or isolation stress and served as a control for basal levels of cortisol. Sixty min after treatment animals were taken from their home cage and placed into a novel cage for 5 min. Afterwards animals were sacrificed by decapitation and trunk blood collected for radioimmunoassay of cortisol. All animals were tested under reverse light:dark conditions four hrs into the dark cycle. Data were compared with a one-way ANOVA followed by Fisher PLSD post hoc tests.

[1] = approximately 7-10 mg/kg/day, intravenous as TIMENTIN; cited from earlier work
[2] = system: gram negative beta-lactamase enzymes; details: cited from earlier work
rats = test: Morris water maze, spatial navigation; format: in vivo, rat
Excerpt: The Morris water maze like the radial arm maze was developed to test spatial memory (Morris, 1984). The pool is divided into quadrants usually designated North, South, East and West. The water in the pool is made opaque with milk powder. Hidden just beneath the surface in one of the quadrants is a platform that serves as a escape route for rodents placed into the pool. An animal is placed some where in the pool from a variety of different start points and is timed for latency to find the platform, percent time spent in each quadrant, distance traveled and swimming speed. The animals has no visual or spatial cues in the pool and must rely on extra-maze cues, i.e., objects set up outside the pool that can be seen by the swimming animal. Through a series of trials a rat develops “place learning” or knowledge about the position of the platform based upon the extra-maze cues. The platform can be moved to a different quadrant each day combining spatial memory with working memory. This paradigm involves extinction of the prior memory and resolution of a new spatial problem.
The water maze consisted of a black plastic circular pool ca. 150 cm in diameter and 54 cm in height filled to a level of 35 cm with water made opaque with powdered milk. The pool was divided into four quadrants with a platform 10 cm in diameter submerged 2 cm below the surface in the northwest quadrant. The water was maintained at a temperature of 25° C. Around the pool were several visual cues. Above the pool was a video camera for tracking the movement of the experimental animal. The data collection was completely automated using the software developed by HVS Image (Hampton, UK). Before testing, rats were familiarized with the pool and platform placed in the northwest quadrant. Each day for 4 consecutive days, animals were placed into pool at random sites and given two min to find the platform. Animals were treated one hr before testing with 50 μg/kg Mox (n=11) or vehicle (n=10). Following these familiarization trials, animals were tested for spatial navigation. The first day of testing began with the platform in the expected northwest quadrant. All behavior was videotaped for a two min observation period. After testing the animal were dried off and placed back into their home cage. On each subsequent day the platform was moved to a new quadrant and the rat started at different positions. The rat was always placed into the pool facing the side wall. The start positions relative to the platform were different for each of the four trials; however, the platform was always in the same relative position in each quadrant. Twenty cm in from the side of the pool and in the left corner from the center facing out.
The Morris water maze was developed to test spatial memory (Morris, 1984). The pool is divided into quadrants usually designated North, South, East and West. The water in the pool is made opaque with milk powder. Hidden just beneath the surface in one of the quadrants is a platform that serves as a escape route for rodents placed into the pool. An animal is placed some where in the pool from a variety of different start points and is timed for latency to find the platform, percent time spent in each quadrant, distance traveled and swimming speed. The animals have no visual or spatial cues in the pool and must rely on extra-maze cues, i.e., objects set up outside the pool that can be seen by the swimming animal. Through a series of trials a rat develops “place learning” or knowledge about the position of the platform based upon the extra-maze cues. The platform can be moved to a different quadrant each day combining spatial memory with working memory. This paradigm involves extinction of the prior memory and resolution of a new spatial problem.
The water maze consisted of a black plastic circular pool ca. 150 cm in diameter and 54 cm in height filled to a level of 35 cm with water made opaque with powdered milk. […]

[3] = system: Corticotropin Releasing Factor receptor; test: NOVASCREEN CRF binding assay; details: 100 nM
Procedure: [table] Corticotropin releasing hormone (CRH or CRF as shown on the following page) is a critical neurohormone in the regulation of stress. Since Mox suppresses impulsivity, aggression, and anxiety while enhancing learning and memory it may be acting to reduce stress. For this reason, Mox was tested by NOVASCREEN in a CRF binding assay.

gram-negative meningitis = details: 241 of 260; 4 g every 8 hrs for 2-3 weeks; cited from earlier work
hamsters = test: Motor activity in an open field (hamsters); format: in vivo, Syrian golden hamsters (Mesocricetus auratus); details: 50 μg/kg, 90 min after injection
Procedure: Six animals were tested for general motor activity in an “open field” following treatment with saline vehicle or 50 μg/kg Mox (FIG. 5). The study was counter balanced with each animal receiving each treatment. Ninety minutes after injection a single animal was placed into a large clean Plexiglas cage (48×32×40 cm) devoid of any bedding. This open field was delineated into equal quadrants by tape on the underside of the cage. Animals were scored for motor activity by counting the number of quadrants traversed in 1 min.

[4] = system: Amino Acid, Adrenergic, Serotonergic, and Dopaminergic Receptors and Their Transporters; test: NOVASCREEN screen of thirty-six receptor and transporter binding assays; details: 100 nM, duplicate samples
Excerpt: Moxalactam was screened in thirty-six different binding assays by NOVASCREEN, a contract research organization based in Hanover, Md. […] These assays were chosen because their respective receptor or transporter may play a role in the pathophysiology of mental illness. […] [table] [table] [table] [table] [table]

SMILES | effect on the release of cortisol in response to mild stress (male hamsters) | blood level of cortisol vs untreated, non-stressed control (male hamsters; sixty min, 5 min novel cage) | adverse reactions or contraindications [1] | binding affinity for the beta-lactamases [2] | concentration range inhibiting gram negative beta-lactamase enzymes [2] | percentage of time spent in each quadrant (rats; CLAV 1.0 μg/kg) | swim rate (rats; CLAV 1.0 μg/kg) | latency to find the platform, main effect (rats; CLAV 1.0 μg/kg one hr before testing) | path length to find the platform (rats; CLAV 1.0 μg/kg, Day 1) | time spent in the correct (South) quadrant (rats; CLAV 1.0 μg/kg, Day 2) | latency to find the platform (rats; CLAV 1.0 μg/kg, Days 1 and 4, trend towards significance) | effect in the CRF binding assay [3] | patients with satisfactory response to antibiotic therapy (gram-negative meningitis) | open field activity (quadrants traversed in 1 min) (hamsters) | distance covered to reach the platform (rats; Mox 50 μg/kg) | percentage of time spent in each quadrant (rats; Mox 50 μg/kg) | swim speed (rats; Mox 50 μg/kg) | latency to find the hidden platform (rats; Mox 50 μg/kg one hr before testing, days two, three and four) | swim speed relative to vehicle (rats; Mox 50 μg/kg, Day 2) | effect in the thirty-six binding assays [4]
O=C(O)[C@H]1/C(=C/CO)O[C@@H]2CC(=O)N21 [CLAV, Clavulanic acid] | no ostensible effect | more than twice | no reported adverse reactions or contraindications | very high | 15 to 34 nM | no significant difference between treatments | no significant difference | no main effect for drug treatment | much shorter distance | over 50% | shorter latencies | – | – | – | – | – | – | – | – | –
CO[C@@]1(NC(=O)C(C(=O)O)c2ccc(O)cc2)C(=O)N2C(C(=O)O)=C(CSc3nnnn3C)CO[C@@H]21 (stereo partly drawn) [Mox, 7-β-[2-carboxy-2-(4-hydroxyphenyl)acetamido]-7α-methoxy-3-[[(1-methyl-1H-tetrazol-5-yl)thio]methyl]-1-oxa-1-dethia-3-cephem-4-carboxylic acid] | – | – | – | – | – | – | – | – | – | – | – | no effect | 93% | no significant difference | not significantly different | no significant difference between treatments | significantly greater swim speed | significantly shorter latencies | almost twice the speed | no significant effect
